Cc1n[nH]c(=S)s1
solubility (mole fraction)
Settings	283.15 K	288.15 K	293.15 K	298.15 K	303.15 K	308.15 K	313.15 K	318.15 K	323.15 K
in ethanol	0.0105	0.0131	0.0156	0.0184	0.0219	0.0249	0.0297	0.0342	0.04
in ethyl acetate	0.0152	0.0173	0.0197	0.0221	0.0244	0.0272	0.0307	0.0338	0.038
in ethyl formate	0.00842	0.01	0.0114	0.0134	0.0151	0.0176	0.0202	0.0227	0.0257
in isobutanol	0.00538	0.00689	0.00881	0.0112	0.0143	0.0172	0.0216	0.0271	0.0319
in isopropanol	0.00763	0.00943	0.0115	0.0143	0.0179	0.0215	0.0258	0.0314	0.0374
in methanol	0.0104	0.0129	0.0153	0.018	0.0213	0.0246	0.0292	0.0337	0.0396
in methyl acetate	0.0167	0.0189	0.021	0.0234	0.0257	0.0284	0.0313	0.0342	0.0382
in n-butanol	0.00723	0.00904	0.0109	0.0136	0.0164	0.0194	0.0239	0.0287	0.0333
in n-butyl acetate	0.0135	0.0153	0.0172	0.0194	0.022	0.0246	0.0274	0.0304	0.0336
in n-pentyl acetate	0.0117	0.0137	0.0157	0.0178	0.0203	0.0229	0.0261	0.0289	0.0334
in n-propanol	0.0097	0.0119	0.0145	0.0171	0.0206	0.0243	0.0288	0.033	0.0389
in n-propyl acetate	0.0146	0.0163	0.0187	0.0213	0.0237	0.0266	0.0301	0.033	0.0368

Source: BigSolDB 2.1
